In one data set the test system is rats. The note with it: oral administration, Sakamoto, et al, Chem. Pharm. Bull., 1985, 33, 4870; cited from earlier work.
A further data set is described as follows: in vitro. Type of data set: in vitro ADME. The note with it: rat, plasma. As to the method: The process of hydrolysis of the dioxolenylmethyl carbamate of 3,4-dimethoxyphenethylamine was studied by measuring the formation of dimethoxyphenethylamine at 37° C. in neat rat plasma. The reaction was initiated by adding a dimethyl sulfoxide (DMSO) solution of the carbamate to the reaction medium pre-equilibrated at 37° C. in a thermostated water bath. The initial concentrations of the carbamate in rat plasma was 4.3×10^-3 M and the concentration of DMSO was 10%. Samples (100 μL of acetonitrile, vortex mixed for 30 seconds to precipitate the plasma proteins, and centrifuged at 10,000 X g for 5 minutes. The supematants were injected directly and analyxed by HPLC. The HPLC column used was a 10 cm spheri-5 RP-18 column combined with a similar 3 cm guard column. The mobile phase used for the analysis of dimethoxyphenethylamine was 30% v/v of acetonitrile in water containing 0.5 mL/L of 85% phosphoric acid and 0.5 mL/L of triethylamine at a flow rate of 2 mL per minute. The concentration was measured at 280 nm using a variable wave length UV detector. The retention time of dimethoxyphenethylamine under these conditions was 5.8 minutes.

Turning to `CCn1cc(C(=O)O)c(=O)c2cc(F)c(N3CCN(Cc4oc(=O)oc4C)CC3)cc21` [alkylated nofloxacin], the “regeneration of the parent drug” value in the data set on rats is listed as “regenerated the parent drug”.

As a reminder, the half-life is how long it takes for the measured level to halve. A low value points to rapid decline. With `COc1ccc(CCNC(=O)OCc2oc(=O)oc2C)cc1OC` [5'-methyl-2'-oxo-1',3'-dioxol-4'-enyl-4'-methylcarbamoyl-3,4-dimethoxyphenethylamine], the half-life at 4300 µM in the data set “in vitro” came out at 11 min.

Values taken from patent US5466811A, “Dioxolenylmethyl carbamates pro moieties for amine drugs” (Merck & Co., Inc., priority 1994, dated 1995).
